Measurements from patent US20230210871A1 (THE LIMITED COMPANY RESEARCH AND DEVELOPMENT COMPANY …, priority 2017, published 2023).
pIC50: −log10 of the molar value.

Molecular target: BSA glycation (Bos taurus, UniProt P02769)
Assay: Determination of antiglycation activity (BSA glycation by glucose, fluorescence of glycated BSA)
Assay type: biochemical, bovine
Details: for The average concentration of AGEs in the sample at a given concentration of the drug (Δ %, M ± m): BSA 1 mg/ml, glucose 500 mM, pH 7.4, 24 hours at 60° C
Experimental: The reaction mixture contains solutions of bovine serum albumin (1 mg/ml) and glucose (500 mM) in phosphate buffer (pH=7.4). To prevent bacterial growth, sodium azide in a final concentration of 0.02% is added to the buffer solution. All substances are dissolved in dimethyl sulfoxide (DMSO). […] All experimental samples are incubated for 24 hours at 60° C. At the end of the incubation period, specific fluorescence of glycated bovine serum albumin (BSA) is determined using an F-7000 spectrofluorimeter (Hitachi, Japan) at an excitation wavelength of 370 nm and an emission wavelength of 440 nm.
The calculation of the IC50 indicator is carried out by the method of regression analysis (Table 2).

BSA glycation, sequence (P02769 25-607): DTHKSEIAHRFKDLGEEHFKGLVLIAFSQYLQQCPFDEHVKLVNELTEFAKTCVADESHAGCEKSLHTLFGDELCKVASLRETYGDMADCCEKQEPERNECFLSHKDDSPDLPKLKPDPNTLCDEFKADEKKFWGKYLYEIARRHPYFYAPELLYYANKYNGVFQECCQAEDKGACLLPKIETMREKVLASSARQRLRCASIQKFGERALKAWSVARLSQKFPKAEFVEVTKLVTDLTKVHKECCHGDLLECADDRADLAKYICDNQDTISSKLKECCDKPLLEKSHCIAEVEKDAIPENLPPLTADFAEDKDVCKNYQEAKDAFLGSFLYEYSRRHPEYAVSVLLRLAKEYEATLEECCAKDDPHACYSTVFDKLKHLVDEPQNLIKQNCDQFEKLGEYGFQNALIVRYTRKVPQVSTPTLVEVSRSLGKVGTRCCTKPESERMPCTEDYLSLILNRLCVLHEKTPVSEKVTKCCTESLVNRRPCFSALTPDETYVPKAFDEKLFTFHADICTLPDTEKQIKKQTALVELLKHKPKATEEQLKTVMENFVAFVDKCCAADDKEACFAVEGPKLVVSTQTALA

- pIC50 (calculated by regression analysis): 3.12
- The average concentration of AGEs in the sample at a given concentration of the drug (Δ %, M ± m) (drug concentration 3*10^−4 mol): 50.25 ± 1.08 Δ %
- The average concentration of AGEs in the sample at a given concentration of the drug (Δ %, M ± m) (drug concentration 3*10^−5 mol): 19.14 ± 2.24 Δ %
- The average concentration of AGEs in the sample at a given concentration of the drug (Δ %, M ± m) (drug concentration 10^−3 mol): 58.08 ± 0.72 Δ %
- The average concentration of AGEs in the sample at a given concentration of the drug (Δ %, M ± m) (drug concentration 10^−4 mol): 38.75 ± 1.52 Δ %
- The average concentration of AGEs in the sample at a given concentration of the drug (Δ %, M ± m) (drug concentration 10^−5 mol): 3.53 ± 2.31 Δ %
SMILES: N=C(N)NN [Aminoguanidine, aminoguanidine]
